Target: T1, β-cell KATP channel (human SUR1 and human Kir6.2) (Homo sapiens, UniProt Q09428)
T1 construct: gene ABCC8; SUR1 and Kir6.2 co-expressed in COS-1 cells; with ATP-sensitive inward rectifier potassium channel 11
Experiment: whole-cell patch clamp, inhibition of diazoxide-induced K+ current
Type: cell-based

T1 sequence (Q09428 whole entry): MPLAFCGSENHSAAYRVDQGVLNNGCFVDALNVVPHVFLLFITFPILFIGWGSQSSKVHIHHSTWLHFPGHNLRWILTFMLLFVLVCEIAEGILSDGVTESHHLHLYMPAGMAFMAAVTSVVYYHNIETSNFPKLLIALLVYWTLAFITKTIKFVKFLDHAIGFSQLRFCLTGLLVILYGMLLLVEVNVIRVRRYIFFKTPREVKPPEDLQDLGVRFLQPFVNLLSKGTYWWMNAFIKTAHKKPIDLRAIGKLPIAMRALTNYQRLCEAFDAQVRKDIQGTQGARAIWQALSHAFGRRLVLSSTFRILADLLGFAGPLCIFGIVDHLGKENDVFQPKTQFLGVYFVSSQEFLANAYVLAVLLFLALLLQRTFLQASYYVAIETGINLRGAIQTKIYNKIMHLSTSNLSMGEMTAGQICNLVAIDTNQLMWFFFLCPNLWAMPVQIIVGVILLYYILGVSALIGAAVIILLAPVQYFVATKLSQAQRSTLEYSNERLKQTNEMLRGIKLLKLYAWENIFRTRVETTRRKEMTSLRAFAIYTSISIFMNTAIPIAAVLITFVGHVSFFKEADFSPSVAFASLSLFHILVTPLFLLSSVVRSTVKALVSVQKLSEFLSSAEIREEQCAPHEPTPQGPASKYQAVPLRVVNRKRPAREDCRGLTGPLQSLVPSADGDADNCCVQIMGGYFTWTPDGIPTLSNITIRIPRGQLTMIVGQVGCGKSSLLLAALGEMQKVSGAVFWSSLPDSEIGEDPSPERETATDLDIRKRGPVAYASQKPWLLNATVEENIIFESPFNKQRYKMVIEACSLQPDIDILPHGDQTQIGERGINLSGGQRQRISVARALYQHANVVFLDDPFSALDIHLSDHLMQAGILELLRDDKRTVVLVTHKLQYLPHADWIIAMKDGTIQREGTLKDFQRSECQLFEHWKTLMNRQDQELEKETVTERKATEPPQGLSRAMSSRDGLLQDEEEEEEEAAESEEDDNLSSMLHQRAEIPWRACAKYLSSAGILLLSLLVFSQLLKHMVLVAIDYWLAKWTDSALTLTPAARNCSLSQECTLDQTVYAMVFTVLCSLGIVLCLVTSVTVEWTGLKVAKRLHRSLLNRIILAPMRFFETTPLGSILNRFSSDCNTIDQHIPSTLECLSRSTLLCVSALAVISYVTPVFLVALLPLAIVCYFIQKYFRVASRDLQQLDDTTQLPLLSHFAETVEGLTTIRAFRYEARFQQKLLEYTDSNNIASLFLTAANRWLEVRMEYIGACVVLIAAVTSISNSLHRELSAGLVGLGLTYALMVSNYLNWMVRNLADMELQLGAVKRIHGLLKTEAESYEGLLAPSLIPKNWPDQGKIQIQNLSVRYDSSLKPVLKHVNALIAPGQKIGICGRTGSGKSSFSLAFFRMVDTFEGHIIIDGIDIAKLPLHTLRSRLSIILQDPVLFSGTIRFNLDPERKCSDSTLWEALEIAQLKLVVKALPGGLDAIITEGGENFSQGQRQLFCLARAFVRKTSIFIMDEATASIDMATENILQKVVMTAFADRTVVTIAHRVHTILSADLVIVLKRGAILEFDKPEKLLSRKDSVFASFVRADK
T1 sequence (Q14654 whole entry partner): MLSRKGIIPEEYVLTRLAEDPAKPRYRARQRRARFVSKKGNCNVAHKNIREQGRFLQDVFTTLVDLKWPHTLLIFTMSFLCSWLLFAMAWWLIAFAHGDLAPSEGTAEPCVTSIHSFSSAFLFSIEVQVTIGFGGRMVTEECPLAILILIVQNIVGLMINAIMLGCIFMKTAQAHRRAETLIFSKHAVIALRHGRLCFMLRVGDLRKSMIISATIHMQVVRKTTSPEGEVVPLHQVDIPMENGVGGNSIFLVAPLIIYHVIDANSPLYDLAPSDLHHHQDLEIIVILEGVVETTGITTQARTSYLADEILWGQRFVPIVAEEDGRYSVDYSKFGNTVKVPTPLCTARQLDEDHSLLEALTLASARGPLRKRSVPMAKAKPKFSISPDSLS

IC50: 860 nM
Structure (SMILES): Cc1ccc(S(=O)(=O)NC(=O)NN2CC3CCCC3C2)cc1 (stereo not shown) [gliclazide]
